Positions of bridges follow the written chain, without caps; N, C: chain ends. Non-standard residues stand in square brackets, D forms with d. Residues, ends and D or L forms follow the SMILES beside them.
How the values were obtained:
[1] = tested on: cells derived from prolactin-secreting pituitary adenomas; test: Reduction of prolactin secretion from prolactinoma cell cultures; assay type: cell-based, human; conditions: for effect on prolactin release (in words): tumor 1 adenomatous cell cultures, 10-100 nM; for effect on prolactin release (in words) / suppression of prolactin secretion: 3 hours; for suppression of prolactin release / effect on prolactin production (in words): large tumor 4 cell cultures; for suppression of prolactin secretion: tumor 1 cell cultures; for response of cells from the four large male tumors (in words): tumors 1, 2, 3 and 4 (macroprolactinomas of male patients)
human SSTR-1 = human SSTR-1 (Homo sapiens, UniProt P30872); test: Somatostatin receptor binding assay, hSSTR-1
human SSTR-3 = human SSTR-3 (Homo sapiens, UniProt P32745); test: Somatostatin receptor binding assay, hSSTR-3
Chain of human SSTR-3 (P32745 whole entry): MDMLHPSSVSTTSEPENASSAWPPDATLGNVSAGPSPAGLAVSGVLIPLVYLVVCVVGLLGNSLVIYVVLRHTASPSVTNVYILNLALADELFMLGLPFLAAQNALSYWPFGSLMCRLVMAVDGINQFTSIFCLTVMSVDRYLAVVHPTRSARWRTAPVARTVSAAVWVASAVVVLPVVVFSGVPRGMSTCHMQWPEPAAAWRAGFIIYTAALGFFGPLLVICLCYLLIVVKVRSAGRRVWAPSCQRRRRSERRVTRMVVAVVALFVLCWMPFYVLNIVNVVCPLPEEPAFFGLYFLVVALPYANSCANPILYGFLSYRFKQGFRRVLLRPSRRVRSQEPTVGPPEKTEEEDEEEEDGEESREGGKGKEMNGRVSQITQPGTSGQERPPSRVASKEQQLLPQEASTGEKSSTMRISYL

Chain of human SSTR-1 (P30872 whole entry): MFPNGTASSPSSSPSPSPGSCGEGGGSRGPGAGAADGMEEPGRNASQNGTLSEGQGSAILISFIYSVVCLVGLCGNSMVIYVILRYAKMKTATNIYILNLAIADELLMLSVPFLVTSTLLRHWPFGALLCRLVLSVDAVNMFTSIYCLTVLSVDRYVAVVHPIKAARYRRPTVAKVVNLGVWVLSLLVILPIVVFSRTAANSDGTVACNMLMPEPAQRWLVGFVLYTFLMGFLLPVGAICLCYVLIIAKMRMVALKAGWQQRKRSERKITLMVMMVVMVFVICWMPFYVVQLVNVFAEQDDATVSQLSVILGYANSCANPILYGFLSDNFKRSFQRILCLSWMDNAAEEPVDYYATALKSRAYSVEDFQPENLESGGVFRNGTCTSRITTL

Compound | effect on prolactin release (in words) [1] | response of cells from the four large male tumors (in words) [1] | other results
CC[C@@H]1NC(=O)[C@H](CCCCN)NC(=O)[C@@H](Cc2c[nH]c3ccccc23)NC(=O)[C@H](Cc2ccc(O)cc2)NC(=O)[C@@H](NC(=O)[C@H](N)Cc2ccccc2)CSSC[C@@H](C(=O)N[C@H](C(N)=O)[C@@H](C)O)NC1=O [BIM-23023] | did not affect prolactin release |  | 
C[C@@H](O)[C@H](NC(=O)[C@H](Cc1ccccc1)NC(=O)[C@@H](NC(=O)[C@H](CCCCN)NC(=O)[C@@H](Cc1c[nH]c2ccccc12)NC(=O)[C@H](Cc1ccccc1)NC(=O)[C@H](Cc1ccccc1)NC(=O)[C@H](N)Cc1ccccc1)[C@@H](C)O)C(N)=O [BIM-23052, H-D-Phe-Phe-Phe-D-Trp-Lys-Thr-Phe-Thr-NH2] (H-[dF]FF[dW]KTFT-NH2) |  | suppression of prolactin secretion | suppression of prolactin release ([1]; p<0.05): more than 30%; suppression of prolactin secretion ([1]; 10 nM, p<0.05): 33%
CC[C@@H]1NC(=O)[C@H](CCCCN)NC(=O)[C@@H](Cc2c[nH]c3ccccc23)NC(=O)[C@H](Cc2ccc(O)cc2)NC(=O)[C@@H](NC(=O)[C@@H](Cc2ccccc2)NC(=O)CN2CCN(CCO)CC2)CSSC[C@@H](C(=O)N[C@H](C(N)=O)[C@@H](C)O)NC1=O [BIM-23190] | did not affect prolactin release | failed to respond | effect on prolactin production (in words) [1]: modestly stimulated prolactin production
CC[C@@H]1NC(=O)[C@H](CCCCN)NC(=O)[C@@H](Cc2c[nH]c3ccccc23)NC(=O)[C@H](Cc2ccc(O)cc2)NC(=O)[C@@H](NC(=O)[C@@H](Cc2ccccc2)NS(=O)(=O)CCN2CCN(CCO)CC2)CSSC[C@@H](C(=O)N[C@H](C(N)=O)[C@@H](C)O)NC1=O [BIM-23197] | did not affect prolactin release | failed to respond | effect on prolactin production (in words) [1]: modestly stimulated prolactin production
C[C@@H](O)[C@@H]1NC(=O)[C@H](CCCCN)NC(=O)[C@@H](Cc2c[nH]c3ccccc23)NC(=O)[C@H](Cc2ccccc2)NC(=O)[C@H](Cc2ccccc2)NC(=O)[C@@H](N)CSSC[C@@H](C(N)=O)NC(=O)[C@H](Cc2ccccc2)NC1=O [BIM-23268, H-Cys-Phe-Phe-D-Trp-Lys-Thr-Phe-Cys-NH2] (H-CFF[dW]KTFC-NH2; disulfide 1-8) |  | suppression of prolactin secretion | suppression of prolactin ([1]; large tumor 3 cell cultures, 10 nM and 100 nM, dose dependent, p<0.05): up to 29%; suppression of prolactin release ([1]; p<0.05): more than 30%; suppression of prolactin secretion ([1]; 10 nM, p<0.05): 36%; inhibition of prolactin release versus controls ([1]; tumor 2 cell cultures, 10 nM, p<0.0005): 38%
CC(C)[C@@H]1NC(=O)[C@H](CCCCN)NC(=O)[C@@H](Cc2c[nH]c3ccccc23)NC(=O)[C@H](Cc2ccc(O)cc2)NC(=O)[C@@H](NC(=O)[C@H](N)Cc2ccc3ccccc3c2)CSSC[C@@H](C(=O)N[C@H](C(N)=O)[C@@H](C)O)NC1=O [Lanreotide] | did not affect prolactin release | failed to respond | Ki (human SSTR-1): 2.41 µM; Ki (human SSTR-3): 0.0979 µM
C[C@@H](O)[C@@H]1NC(=O)[C@H](CCCCN)NC(=O)[C@@H](Cc2c[nH]c3ccccc23)NC(=O)[C@H](Cc2ccccc2)NC(=O)[C@@H](NC(=O)[C@H](N)Cc2ccccc2)CSSC[C@@H](C(=O)N[C@H](CO)[C@@H](C)O)NC1=O [Octreotide] |  | failed to respond | 
